Values after ≈ are worked out from the molar mass of the structure shown. Where two headings read alike, the source gives them in different places.

For series [1], the system named is E. multilocularis metacestodes. The experiment in a line: PGI-assay: drug-induced damage on in vitro cultured metacestodes (Pathogen Box screening cascade and EC50). Format: cell-based, Echinococcus multilocularis. As to conditions: for activity in the screen at 10 μM (confirmed in triplicates, >20% relative PGI release): 5 and 12 days.
The test system of series [2] is E. granulosus protoscoleces. More on the design: method as in Bonilla et al., 2008. Conditions: after 48 h; ref Bonilla et al., 2008; cited from earlier work.
For series [3], the system named is E. multilocularis metacestodes. In words: Vesicle viability assay by Alamar Blue (MIC). Format: cell-based, Echinococcus multilocularis. As to conditions: Echinococcus multilocularis, 288 h; Alamar Blue vesicle viability assay, 12 days of incubation; read-out: E. multilocularis MIC. The protocol:
The setup was the same as for PGI-assay EC50 calculations and it was performed in triplicates. […] Data was used to calculate the minimal inhibitory concentrations (MICs) of these compounds on metacestodes.

For series [4], the system named is Reuber rat hepatoma (RH) cells. In words: Cytotoxicity by Alamar Blue assay in rat hepatoma cells. Format: cell-based. Conditions: 120 h, Alamar Blue, 5 days. For orientation: Resazurin is reduced to fluorescent resorufin, in cell work by metabolically active cells.
For series [5], the system named is E. multilocularis metacestodes. In words: Transmission electron microscopy of BPQ-treated metacestodes. Format: cell-based, Echinococcus multilocularis. The method, then: The preparation of the samples for transmission electron microscopy (TEM) was done according to the protocol of [Hemphill and Croft (1997)]. In short, E. multilocularis metacestodes were distributed to 48-well-plates and incubated with DMSO or BPQ (30–0.04 μM) as described above. After an incubation period of 5 days, metacestodes were fixed in 2% glutaraldehyde in 0.1 M sodium cacodylate buffer; pH = 7.3 for 1 h. Next, the samples were stained for 2 h in a 2% osmium tetroxide solution cacodylate buffer, and subsequently pre-stained in a saturated uranyl acetate solution for 30 min. After washing the samples with water, they were dehydrated stepwise by washing in increasing concentrations of ethanol (30%, 50%, 70%, 90%, and three times 100%). The samples were then embedded in Epon 812 resin with three subsequent resin changes during 2 days and incubated at 65 °C overnight for polymerization. Sections for TEM (80 nm) were cut using an ultramicrotome (Reichert and Jung, Vienna, Austria), and were loaded onto formvar-carbon coated nickel grids (Plano GmbH, Marburg, Germany). The specimens were finally stained with uranyl acetate and lead citrate, and were viewed on a CM12 transmission electron microscope (Philips Electron Optics, Eindhoven, Netherlands) that operates at 80 kV.

Series [6] has as its system mitochondrial respiration of E. multilocularis GL cells. In words: Mitochondrial respiration (OCR) in permeabilized GL cells by Seahorse XFp analyzer. Conditions: 1 μM. The series is classed as cell-based, Echinococcus multilocularis.
The subject of series [7] is E. multilocularis metacestodes. The experiment in a line: BPQ treatment of E. multilocularis infected mice. The series is classed as in vivo, Balb/c mice. Conditions: for parasite burden compared to the control: p.o. in corn oil, 5 days per week, 4 weeks, BPQ 100 mg/kg, ABZ 200 mg/kg. The method, then:
Balb/c mice, 6 weeks old, were purchased from Charles River Laboratories (Sulzheim, Germany) and used for in vivo experiments when they were 8 weeks old and weighted approximately 20 g. The mice were housed in a type 3 cage containing enrichment in the form of a cardboard house and paper and woodchip bedding with a maximum of seven mice per cage. […] Food and water was provided ad libitum. Experimentally infected mice were treated with BPQ to elucidate the efficacy of the drug in vivo. To infect mice, in vitro grown E. multilocularis metacestodes (isolate […]) were washed in PBS, were mechanically destroyed by pipetting and the resulting suspension was centrifuged for 5 min at 500 g. The parasite tissue was then taken up in an equal volume of PBS. Each mouse was subsequently infected intraperitoneally (i.p.) with 200 μl of this suspension. […] infected mice were randomly distributed into 3 treatment groups (8 animals per group) with 4 animals per cage. […] Treatments of mice started 2 weeks post-infection and lasted for 4 weeks, with consecutive treatment of mice for 5 days per week, followed by an interruption of treatment for 2 days for recovery. All treatments were administered by oral gavage in a volume of 50 μl, with ABZ and BPQ being suspended in corn oil. After four weeks, all mice were anesthetized with isoflurane and subsequently euthanized by CO2. The parasitic tissue from each mouse was completely resected and weighed. The mass of the resected parasitic tissue was used for statistical analyses of the experiment. […] The significance level was set to p < 0.05. Figures were prepared in R and Adobe Illustrator 2015.1.0.

Series [8] is described as follows: BPQ levels in orally treated mice (literature). Format: in vivo. As to conditions: extrapolation to 100 mg/kg.
On the set-up of series [9]: method as in Smith et al., 2018. As to conditions: mice, oral, single dose of 6 mg/kg; ref Smith et al., 2018; cited from earlier work.
Series [10] relates to E. multilocularis metacestodes. In words: PGI-assay under anaerobic/aerobic conditions. Conditions: oxygen-free atmosphere, 5 days.
Series [11] has as its system human foreskin fibroblasts (HFF). In words: Cytotoxicity by Alamar Blue assay in human foreskin fibroblasts. Conditions: Homo sapiens, Fibroblast, 120 h.
The mark [12] stands for this setting: 1 µM, triplicates, 5 days of incubation.
[13] abbreviates: 1 µM, triplicates, 12 days of incubation.

On to `CC(=O)OCC1OC([S-])C(OC(C)=O)C(OC(C)=O)C1OC(C)=O.CCP(CC)CC.[Au+]` (stereo not shown) [MMV688978, Auranofin, reference compound], for which the “activity against metacestodes at 1 μM” value in series [1] (triplicates) is “not at 1 μM”. Also, the “PGI release, % of Tx-100 control, average, 5d” value is on record as -2.65% in series [1] (setting [12]) and 47.33% in [1] (confirmatory screening at 10 µM in triplicates, 5 days of incubation, values as % of Tx-100 control). In addition, the “PGI release, % of Tx-100 control, average, 12d” value was -1.30% in series [1] (setting [13]) and 61.40% in [1] (confirmatory screening at 10 µM in triplicates, 12 days of incubation, values as % of Tx-100 control). In addition, the “activity in the screen at 10 μM (confirmed in triplicates, >20% relative PGI release)” value in series [1] is “active”. Moreover, in [1] (10 µM, singlets, 5 days of incubation), the “PGI release, % of the Tx-100 control, 5d” value came out at 84.86%. Besides, in [1] (10 µM, singlets, 12 days of incubation), the “PGI release, % of the Tx-100 control, 12d” value amounted to 96.09%. In addition, the concentration killing protoscoleces in [2] was 2.5 µM.

Regarding `CC(C)(C)[C@H]1CC[C@H](CC2=C(O)C(=O)c3ccccc3C2=O)CC1` [MMV689480, Buparvaquone], the “activity against metacestodes at 1 μM” value in [1] (triplicates) was “distinct in vitro activities”. Also, the “PGI release, % of Tx-100 control, average, 5d” value in series [1] (setting [12]) was found to be 1.05%. In series [1] (setting [13]), the “PGI release, % of Tx-100 control, average, 12d” value is on record as 52.04%. Besides, the “activity in the screen at 10 μM (confirmed in triplicates, >20% relative PGI release)” value in [1] is listed as “active”. Moreover, the cytotoxicity at 10 µM in [1] (Echinococcus multilocularis, 120 h, 10 µM, singlets, 5 days of incubation, read-out: PGI release, % of the Tx-100 control, 5d) is 27.4%; in series [1] (Echinococcus multilocularis, 288 h, 10 µM, singlets, 12 days of incubation, read-out: PGI release, % of the Tx-100 control, 12d) it was 38.6%. In series [1] (Echinococcus multilocularis, 120 h, PGI-assay, 5 days in vitro, read-out: E. multilocularis EC50), the EC50 amounted to 2.87 µM. For the same compound, the PGI release, % of Tx-100 control at 10 µM in series [1] (Echinococcus multilocularis, 120 h, confirmatory screening at 10 µM in triplicates, 5 days of incubation, values as % of Tx-100 control, read-out: PGI release, % of Tx-100 control, average, 5d) is 41.2%; in series [1] (Echinococcus multilocularis, 288 h, confirmatory screening at 10 µM in triplicates, 12 days of incubation, values as % of Tx-100 control, read-out: PGI release, % of Tx-100 control, average, 12d) it was 63.7%. Also, the IC50 in [1] (Echinococcus multilocularis, read-out: IC50 against in vitro cultured E. multilocularis metacestodes) amounted to 2.87 µM; in series [4] (confluent cells, read-out: RH confluent IC50), 17.4 µM; in series [4] (preconfluent cells, read-out: RH preconfluent IC50) it was 8.47 µM; in [11] (read-out: HFF confluent IC50) it was 48.6 µM; in series [11] (read-out: HFF preconfluent IC50) it was 5.99 µM. In series [1] (comparison of EC50 with IC50 on mammalian cells), the “toxicity against E. multilocularis metacestodes compared with host cells (HFF, RH)” value is listed as “specific toxicity”. Also, the MIC in [3] amounted to 0.56 µM (≈ 0.183 µg/mL). Besides, the “ultrastructural alterations (TEM) at 1 μM” value in series [5] (1 μM, 5 days) is “membrane stacks were observed, and the GL started to separate from the LL”. Also, the “ultrastructural alterations (TEM) at 3 μM” value in [5] (3 μM, 5 days) is on record as “metacestode integrity was seriously impaired”. Moreover, in series [5] (5 days of BPQ), the “lowest concentration with ultrastructural damage (TEM)” value came to 0.3 µM. In addition, the “oxygen consumption rate (OCR) after addition of drug” value in [6] (permeabilized GL cells fed with succinate) is “rapidly decreased”. Further, the “inhibition of mitochondrial electron transport chain complex” value in [6] (OCR restored by ascorbate/TMPD, not by succinate or glycerol 3-phosphate) is given as “selectively inhibits complex III”. Besides, the “parasite burden compared to the control” value in [7] is given as “failed to reduce the parasite burden”; in series [7] (listed as BPQ), “no significant difference”. The “adverse effects due to treatment” value in series [7] (whole course of treatment, 4 weeks p.o.) was “None of the mice showed signs of adverse effects”. Further, in series [8], the “Cmax extrapolated (assuming linear correlation)” value was 20000 nM. In addition, in series [9], the Cmax is 1200 nM. In addition, the “damage on metacestodes (PGI-assay), anaerobic, 10 μM or lower” value in series [10] (10 μM or lower) is “did not induce damage”. For the same compound, the “damage on metacestodes (PGI-assay), anaerobic, 30 μM” value in [10] (30 μM) is given as “active”.

Usually EC50 stands for the concentration giving half of the maximal effect. One may read the IC50 as the point on the concentration scale where inhibition reaches its midpoint. In general, MIC refers to the least concentration at which growth counts as inhibited. As usually defined, the Cmax is the maximum level reached in the sampled fluid or tissue.

The record behind these values is publication PMC6216040, “Repurposing of an old drug: In vitro and in vivo efficacies of buparvaquone against Echinococcus multilocularis” (International Journal for Parasitology: Drugs and Drug …, 2018).
